The target in assay [1] is T1, Androgen receptor (Homo sapiens, UniProt P10275).
T1 sequence (P10275 whole entry): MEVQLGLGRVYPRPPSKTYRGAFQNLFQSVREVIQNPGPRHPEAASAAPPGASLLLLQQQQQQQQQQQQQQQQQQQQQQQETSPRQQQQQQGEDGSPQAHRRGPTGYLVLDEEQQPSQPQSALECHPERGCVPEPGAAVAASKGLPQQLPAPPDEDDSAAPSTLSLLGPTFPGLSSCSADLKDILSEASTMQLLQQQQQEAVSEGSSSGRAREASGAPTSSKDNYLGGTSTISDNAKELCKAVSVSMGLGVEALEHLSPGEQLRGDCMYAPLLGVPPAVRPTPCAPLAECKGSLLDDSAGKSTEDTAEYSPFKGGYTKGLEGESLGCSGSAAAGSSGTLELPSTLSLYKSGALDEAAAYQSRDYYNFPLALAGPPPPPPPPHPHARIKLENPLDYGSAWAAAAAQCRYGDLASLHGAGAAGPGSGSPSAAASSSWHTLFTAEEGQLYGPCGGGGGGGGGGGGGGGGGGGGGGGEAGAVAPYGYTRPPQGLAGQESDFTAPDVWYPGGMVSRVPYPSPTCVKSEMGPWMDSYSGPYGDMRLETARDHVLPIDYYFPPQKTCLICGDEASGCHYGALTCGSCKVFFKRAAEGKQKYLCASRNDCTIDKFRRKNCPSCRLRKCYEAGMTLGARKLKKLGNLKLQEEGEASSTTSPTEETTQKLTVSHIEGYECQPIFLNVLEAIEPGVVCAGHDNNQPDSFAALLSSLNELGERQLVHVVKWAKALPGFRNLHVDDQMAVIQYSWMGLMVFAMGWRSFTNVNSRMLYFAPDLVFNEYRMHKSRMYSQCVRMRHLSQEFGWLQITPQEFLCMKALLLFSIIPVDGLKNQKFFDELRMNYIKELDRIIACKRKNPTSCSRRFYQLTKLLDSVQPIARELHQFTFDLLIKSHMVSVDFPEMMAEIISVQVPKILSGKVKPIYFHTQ
In words: Displacement of [3H]DHT from androgen receptor of human MDA-453 cells. A general note: Loss of bound radioactivity is the signal in a displacement assay; it reports binding, not function.

The target in assay [2] is T1, Androgen receptor.
Description: In vitro antagonistic activity against androgen receptor of MDA-453 cells
In assay [3] the target is Androgen receptor (Homo sapiens, UniProt P10275). The conditions noted are these: lncap.
Description: In vitro antagonistic activity against mutant androgen receptor of LNCap cells

Turning to `O=C1[C@H]2[C@H]3CC[C@H](C3)N2C(=O)N1c1ccc([N+](=O)[O-])c2ccccc12`, at Androgen receptor [1], the Ki (commonly a measure of affinity in units of concentration, obtained from inhibition or displacement) came to 1 nM. In addition, the IC50 (usually the concentration that inhibits the measured activity by half) was 1300 nM at Androgen receptor [2] and over 5000 nM at Androgen receptor [3].
In turn, `CCCCc1ccc(C(=O)N2C[C@@H]3C[C@H]2[C@@H]2C(=O)N(c4ccc([N+](=O)[O-])cc4)C(=O)N32)cc1` returned a Ki on Androgen receptor [1] of 70 nM. Further, the half-maximal inhibitory concentration (IC50) against Androgen receptor [2] was determined as 60 nM; against Androgen receptor [3], 4750 nM.
As to `CC(C)(C)OC(=O)N1C[C@@H]2C[C@H]1[C@]1(C)C(=O)N(c3ccc(C#N)c(C(F)(F)F)c3)C(=O)N21`, the half-maximal inhibitory concentration (IC50) amounted to 780 nM at Androgen receptor [2] and 10400 nM against Androgen receptor [3].
Compound `CC(C)(C)OC(=O)N1C[C@H]2C[C@@H]1[C@H]1C(=O)N(c3ccc([N+](=O)[O-])cc3)C(=O)N21` registered a Ki on Androgen receptor [1] of 230 nM. The IC50 on Androgen receptor [2] stood at 250 nM; against Androgen receptor [3], 2390 nM.
Turning to `N#Cc1ccc(N2C(=O)[C@H]3[C@@H]4C[C@@H](CN4C(=O)Oc4ccc(F)cc4)N3C2=O)c2ccccc12`, affinity on Androgen receptor [1] was put at a Ki of 40 nM. The IC50 is 580 nM against Androgen receptor [2] and 1870 nM on Androgen receptor [3].
On the same counts, the results for `N#Cc1ccc(N2C(=O)[C@H]3[C@@H]4C[C@@H](CN4C(=O)Oc4ccc(F)cc4)N3C2=O)cc1C(F)(F)F` are 10 nM, 200 nM and 3920 nM.
Turning to `CC(C)(C)OC(=O)N1C[C@@H]2C[C@H]1[C@H]1C(=O)N(c3ccc([N+](=O)[O-])c4ccccc34)C(=O)N21`, the IC50 at Androgen receptor [2] was 1330 nM; on Androgen receptor [3] it was 5860 nM.
`N#Cc1ccc(N2C(=O)[C@H]3[C@@H]4C[C@@H](CN4C(=O)c4ccccc4)N3C2=O)cc1C(F)(F)F` displayed a Ki at Androgen receptor [1] of 120 nM. Moreover, the IC50 amounted to 300 nM against Androgen receptor [2] and 2600 nM at Androgen receptor [3].
Compound `CC(C)(C)OC(=O)N1C[C@H]2C[C@@H]1[C@H]1C(=O)N(c3ccc(C#N)c(C(F)(F)F)c3)C(=O)N21` showed a Ki on Androgen receptor [1] of over 5000 nM. In addition, the IC50 at Androgen receptor [2] and on Androgen receptor [3] was over 5000 nM throughout.
For `CC(C)(C)OC(=O)N1C[C@@H]2C[C@H]1[C@@H]1C(=O)N(c3ccc(C#N)cc3)C(=O)N21`, the affinity on Androgen receptor [1] corresponds to a Ki of 240 nM. The IC50 was 2540 nM at Androgen receptor [2] and 4970 nM against Androgen receptor [3].
Consider `CC(C)(C)OC(=O)N1C[C@@H]2C[C@H]1[C@H]1C(=O)N(c3ccc(C#N)c(C(F)(F)F)c3)C(=O)N21`, for which, on Androgen receptor [1], the Ki is 180 nM. Also, the IC50 was 640 nM against Androgen receptor [2] and over 5000 nM against Androgen receptor [3].
At Androgen receptor [1], `CC(C)(C)OC(=O)N1C[C@@H]2C[C@H]1[C@H]1C(=O)N(c3ccc(C#N)cc3)C(=O)N21` yielded a Ki of 190 nM. The IC50 was over 5000 nM against Androgen receptor [2] and 3510 nM against Androgen receptor [3].
On the same counts, the results for `CCCCc1ccc(C(=O)N2C[C@@H]3C[C@H]2[C@@H]2C(=O)N(c4ccc(C#N)cc4)C(=O)N32)cc1` are 100 nM, 580 nM and 6800 nM.
On the same counts, the results for `CC(C)(C)OC(=O)N1C[C@@H]2C[C@H]1[C@@H]1C(=O)N(c3ccc(C#N)c(C(F)(F)F)c3)C(=O)N21` are 40 nM, 770 nM and 4380 nM.
As for `CC(C)(C)OC(=O)N1C[C@@H]2C[C@H]1[C@@H]1C(=O)N(c3ccc([N+](=O)[O-])c4ccccc34)C(=O)N21`, on Androgen receptor [1], the affinity, expressed as Ki, was 60 nM. The IC50 against Androgen receptor [2] was found to be 3320 nM; against Androgen receptor [3], 4430 nM.
On the same counts, the results for `O=C1[C@H]2[C@@H]3C[C@@H](CN3C(=O)c3ccccc3)N2C(=O)N1c1ccc([N+](=O)[O-])cc1` are 10 nM, over 5000 nM and 2540 nM.
`O=C1[C@H]2[C@@H]3C[C@@H](CN3C(=O)Oc3ccc(F)cc3)N2C(=O)N1c1ccc([N+](=O)[O-])c2ccccc12` came in with a Ki on Androgen receptor [1] of 10 nM. The 50% inhibitory concentration (IC50) against Androgen receptor [2] was determined as 340 nM; on Androgen receptor [3], 30000 nM.
For the compound `O=C1[C@@H]2[C@@H]3CC[C@@H](C3)[C@@H]2C(=O)N1c1ccc([N+](=O)[O-])c(C(F)(F)F)c1`, at Androgen receptor [1], the Ki was determined as 5 nM. Also, the IC50 on Androgen receptor [2] is 10 nM; at Androgen receptor [3], over 5000 nM.

Values taken from ChEMBL document CHEMBL1138730, “The synthesis and evaluation of [2.2.1]-bicycloazahydantoins as androgen receptor antagonists” (Bioorg Med Chem Lett, 2004).
